Measured values from patent US20160221948A1, “NITROGEN-CONTAINING SATURATED HETEROCYCLIC COMPOUND” (SUMITOMO CHEMICAL COMPANY, LIMITED, priority 2013, published 2016).

These molecules were tested against human SSTR4 (Homo sapiens, UniProt P31391) (assay: Evaluation of agonist activities using human SSTR4-stably expressing cells (aequorin luminescence)). Conditions: Tables 25 to 27.
Assay type: cell-based
Parameters: expressed in transfected cells; host or cells: HEK293
Protocol: Evaluation of Agonist Activities Using Cells that stably expressing human-derived SSTR4 (human SSTR4-stably expressing cells)
(1) Human SSTR4-Stably Expressing Cells
Human SSTR4-stably expressing cells were prepared, and cultured. Specifically, HEK293 cells, human kidney-derived cells, were used as host cells. By introducing pcDNA3.1 (cat. No. V79020, invitrogen, Carlsbad, Calif., USA) to which human SSTR gene was inserted into HEK293 cells, human SSTR4-stably expressing cell line was obtained. For selection, G418 (cat. No. 16513-84, Nacalai tesque, Japan) was used.
As the culture medium, D-MEM medium (cat. No. 11995, GIBCO, USA), containing 10% FBS and 200 μg/mL G418, was used, the culture was performed in a 225 cm^2 flask (cat. No. 11-006-010, Iwaki, Japan).
At about 80% confluence, the cells were harvested by treating with 20-fold diluted 0.25% Trypsin-EDTA (cat. No. 35554-64, Nacalai, tesque, Japan). The harvested cells were prepared at a reaction medium composed of Hanks Buffer (cat. No. 14065-056, invitrogen, Carlsbad, Calif., USA)/20 mM Hepes (cat. No. 15630-080, invitrogen, Carlsbad, Calif., USA), and 0.1% BSA (cat. No. A7906, Sigma Aldrich, USA) to 70000 cells/mL. Gα16 and apoaequorin were transiently introduced to the harvested cells, and the cells were seeded to a 384 well plate (cat. No. 781090, Greiner, Germany) at about 2000 cells/30 μL/well. On the next day of cell seeding, Coelenterazine H (cat. No. S2011, Promega, USA) was added to each well (10 μL/well) to make a final concentration of 0.5 μmol/L, and the plate was centrifuged. Then, the plate was left at room temperature for 4 hours in shaded state.
(2) Preparation of Test Compounds
DMSO solution of each test compound having 1000-fold larger concentration than the final concentration was prepared. The DMSO solutions were made to have 10-fold concentration than the final concentration with Hanks/20 mmol/L Hepes/0.1% BSA.
(3) Evaluation of Agonist Activity
For detection of luminescence signal due to SSTR4-stimulation, FDSS7000 (manufactured by Hamamatsu Photonics K.K.) was used. To plates having cells and the luminescence substrate, solutions of test compounds were added, then each luminescence signal was measured for 90 seconds, and each relative luminescence unit (RLU) was calculated. Based on luminescence signal from the wells to which a 1 μmol/L somatostatin solution was added taken as 100%, agonist activity of each test compound was evaluated.

human SSTR4, sequence (P31391 whole entry): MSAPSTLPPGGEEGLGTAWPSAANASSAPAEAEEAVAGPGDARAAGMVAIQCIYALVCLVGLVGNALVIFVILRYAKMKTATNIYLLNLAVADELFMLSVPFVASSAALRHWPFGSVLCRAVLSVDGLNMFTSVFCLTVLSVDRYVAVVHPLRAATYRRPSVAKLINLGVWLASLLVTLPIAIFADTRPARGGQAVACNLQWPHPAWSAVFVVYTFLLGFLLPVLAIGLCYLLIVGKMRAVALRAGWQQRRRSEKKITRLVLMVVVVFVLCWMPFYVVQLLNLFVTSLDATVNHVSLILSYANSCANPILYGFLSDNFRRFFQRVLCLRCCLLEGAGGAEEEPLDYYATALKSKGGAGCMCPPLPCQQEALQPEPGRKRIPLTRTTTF

SMILES | SSTR4 agonist activity compared with other compounds
COc1ccccc1C(C)(C)NC(=O)[C@@H]1CN(C)CC[C@H]1c1ccccc1 (relative stereo) [Example 108] | stronger SSTR4 agonist activity
Cc1cccc(C(C)(C)NC(=O)C2CCCN(C)C2)c1Cl (stereo not drawn) [Example 13] | stronger SSTR4 agonist activity
CN1CCC[C@H](C(=O)NC(C)(C)c2cccc(Cl)c2Cl)C1 [Example 19, (3S)—N-[2-(2,3-dichlorophenyl)propane-2-yl]-1-methylpiperidine-3-carboxamide] | stronger SSTR4 agonist activity
Cc1cccc(C(C)(C)NC(=O)[C@H]2CCCN(C)C2)c1Cl [Example 26, (3S)—N-[2-(2-chloro-3-methylphenyl)propane-2-yl]-1-methylpiperidine-3-carboxamide] | stronger SSTR4 agonist activity
COc1cc(Cl)ccc1C(C)(C)NC(=O)[C@H]1CCCN(C)C1 [Example 30, (3S)—N-[2-(4-chloro-2-methoxylphenyl)propane-2-yl]-1-methylpiperidine-3-carboxamide] | stronger SSTR4 agonist activity
CCc1cc(Cl)ccc1C(C)(C)NC(=O)[C@H]1CCCN(C)C1 [Example 31, (3S)—N-[2-(4-chloro-2-ethylphenyl)propane-2-yl]-1-methylpiperidine-3-carboxamide] | stronger SSTR4 agonist activity
Cc1ccc(C(C)(C)NC(=O)[C@H]2CCCN(C)C2)c(Cl)c1 [Example 37, (3S)—N-[2-(2-chloro-4-methylphenyl)propane-2-yl]-1-methylpiperidine-3-carboxamide] | stronger SSTR4 agonist activity

The remaining lines, values ahead:

SSTR4 agonist activity compared with other compounds | SMILES
stronger SSTR4 agonist activity | C[C@@H]1CC[C@H](C(=O)NC(C)(C)c2cccc3ccccc23)CN1C (relative stereo) [Example 81]
stronger SSTR4 agonist activity | C[C@@H]1[C@@H](C(=O)NC(C)(C)c2cccc3ccccc23)CCCN1C (relative stereo) [Example 85]
stronger SSTR4 agonist activity | CC[C@@H]1CC[C@H](C(=O)NC(C)(C)c2cccc3ccccc23)CN1C (relative stereo) [Example 90]

Same assay, conditions: luminescence signal; 1 μmol/L somatostatin taken as 100%

SMILES | EC50
COc1ccccc1C(C)(C)NC(=O)[C@@H]1CN(C)CC[C@@H]1c1ccccc1 (relative stereo) [Example 107] | > 100 nM
COc1ccccc1C(C)(C)NC(=O)[C@@H]1CN(C)CC[C@H]1c1ccccc1 (relative stereo) [Example 108] | 2.2 nM
CN1CCC[C@H](C(=O)NC(C)(C)c2ccccc2F)C1 [Example 1, (3S)—N-[2-(2-fluorophenyl)propane-2-yl]-1-methylpiperidine-3-carboxyamide] | 62.7 nM
CN1CCCC(C(=O)NC(c2cccc3ccccc23)C(F)(F)F)C1 (stereo not drawn) [Example 3] | 12.6 nM
CN1CCCC(C(=O)NC2(c3cccc4ccccc34)CC(F)(F)C2)C1 (stereo not drawn) [Example 4] | 343 nM
Cc1cccc(C2(NC(=O)C3CCCN(C)C3)CC2)c1C (stereo not drawn) [Example 5, N-[1-(2,3-dimethylphenyl)cyclopropyl]-1-methylpiperidine-3-carboxamide] | 34.1 nM
Cc1ccc(C(C)(C)NC(=O)C2CCCN(C)C2)cc1C (stereo not drawn) [Example 6] | 14.2 nM
Cc1cccc(C(C)(C)NC(=O)C2CCCN(C)C2)c1C (stereo not drawn) [Example 8] | 8.9 nM
CN1CCCC(C(=O)NC2(c3cc(Cl)cc(Cl)c3)CCOCC2)C1 (stereo not drawn) [Example 9, N-[4-(3,5-dichlorophenyl)tetrahydro-2H-pyran-4-yl]-1-methylpiperidine-3-carboxamide] | 43.3 nM
CN1CCCC(C(=O)NC(C)(C)c2ccc(Cl)c(Cl)c2)C1 (stereo not drawn) [Example 10] | 24.2 nM
Cc1cc(Cl)cc(C(C)(C)NC(=O)C2CCCN(C)C2)c1 (stereo not drawn) [Example 11] | 8.4 nM
Cc1cc(Cl)ccc1C(C)(C)NC(=O)C1CCCN(C)C1 (stereo not drawn) [Example 12, N-[2-(4-chloro-2-methylphenyl)propane-2-yl]-1-methylpiperidine-3-carboxamide] | 9.7 nM
Cc1cccc(C(C)(C)NC(=O)C2CCCN(C)C2)c1Cl (stereo not drawn) [Example 13] | 3.7 nM
CN1CCC[C@H](C(=O)NC(C)(C)c2cccc(Cl)c2Cl)C1 [Example 19, (3S)—N-[2-(2,3-dichlorophenyl)propane-2-yl]-1-methylpiperidine-3-carboxamide] | 1.8 nM
CN1CCC[C@H](C(=O)NC(C)(C)c2ccc(Cl)c(Cl)c2)C1 [Example 22] | 10.9 nM
Cc1cccc(C(C)(C)NC(=O)[C@H]2CCCN(C)C2)c1C [Example 23, (3S)—N-[2-(2,3-dimethylphenyl)propane-2-yl]-1-methylpiperidine-3-carboxamide] | 7.4 nM
Cc1cc(C)cc(C(C)(C)NC(=O)[C@H]2CCCN(C)C2)c1 [Example 25] | 15.9 nM

SMILES | EC50
Cc1cccc(C(C)(C)NC(=O)[C@H]2CCCN(C)C2)c1Cl [Example 26, (3S)—N-[2-(2-chloro-3-methylphenyl)propane-2-yl]-1-methylpiperidine-3-carboxamide] | 2.2 nM
Cc1cc(Cl)ccc1C(C)(C)NC(=O)[C@H]1CCCN(C)C1 [Example 28] | 12.2 nM
Cc1cc(Cl)cc(C(C)(C)NC(=O)[C@H]2CCCN(C)C2)c1 [Example 29, (3S)—N-[2-(3-chloro-5-methylphenyl)propane-2-yl]-1-methylpiperidine-3-carboxamide] | 5.3 nM
COc1cc(Cl)ccc1C(C)(C)NC(=O)[C@H]1CCCN(C)C1 [Example 30, (3S)—N-[2-(4-chloro-2-methoxylphenyl)propane-2-yl]-1-methylpiperidine-3-carboxamide] | 1.5 nM
CCc1cc(Cl)ccc1C(C)(C)NC(=O)[C@H]1CCCN(C)C1 [Example 31, (3S)—N-[2-(4-chloro-2-ethylphenyl)propane-2-yl]-1-methylpiperidine-3-carboxamide] | 1.4 nM
CCc1ccc(C(C)(C)NC(=O)[C@H]2CCCN(C)C2)c(CC)c1 [Example 32, (3S)—N-[2-(2,4-diethylphenyl)propane-2-yl]-1-methylpiperidine-3-carboxamide] | 4 nM
CC(C)c1cc(Cl)ccc1C(C)(C)NC(=O)[C@H]1CCCN(C)C1 [Example 33] | > 100 nM
CC(C)Cc1cc(Cl)ccc1C(C)(C)NC(=O)[C@H]1CCCN(C)C1 [Example 34] | > 100 nM
Cc1ccc(C(C)(C)NC(=O)[C@H]2CCCN(C)C2)c(C)c1 [Example 35, (3S)—N-[2-(2,4-dimethylphenyl)propane-2-yl]-1-methylpiperidine-3-carboxamide] | 3.3 nM
CN1CCC[C@H](C(=O)NC(C)(C)c2ccc(Cl)cc2-c2ccccc2)C1 [Example 36] | > 100 nM
Cc1ccc(C(C)(C)NC(=O)[C@H]2CCCN(C)C2)c(Cl)c1 [Example 37, (3S)—N-[2-(2-chloro-4-methylphenyl)propane-2-yl]-1-methylpiperidine-3-carboxamide] | 2.5 nM
Cc1ccc(Cl)c(C(C)(C)NC(=O)[C@H]2CCCN(C)C2)c1 [Example 38, (3S)—N-[2-(2-chloro-5-methylphenyl)propane-2-yl]-1-methylpiperidine-3-carboxamide] | 5 nM
CN1CCC[C@H](C(=O)NC(C)(C)c2ccccc2)C1 [Example 39] | > 100 nM
CN1CCC[C@H](C(=O)NC(C)(C)c2cccc(Cl)c2)C1 [Example 41] | 12.8 nM
CN1CCC[C@H](C(=O)NC(C)(C)c2ccc(Cl)cc2)C1 [Example 42] | 45.6 nM
Cc1ccccc1C(C)(C)NC(=O)[C@H]1CCCN(C)C1 [Example 43, (3S)—N-[2-(2-methylphenyl)propane-2-yl]-1-methylpiperidine-3-carboxamide] | 13 nM

Results, then the molecule that gave them:

EC50 | SMILES
3.4 nM | C[C@@H]1CC[C@H](C(=O)NC(C)(C)c2cccc3ccccc23)CN1C (relative stereo) [Example 81]
1.1 nM | C[C@@H]1CC[C@@H](C(=O)NC(C)(C)c2cccc3ccccc23)CN1C (relative stereo) [Example 82]
19.8 nM | C[C@@H]1[C@H](C(=O)NC(C)(C)c2cccc3ccccc23)CCCN1C (relative stereo) [Example 84]
1.5 nM | C[C@@H]1[C@@H](C(=O)NC(C)(C)c2cccc3ccccc23)CCCN1C (relative stereo) [Example 85]
9.4 nM | Cc1c(Cl)cccc1C(C)(C)NC(=O)[C@@H]1CC[C@H](C)N(C)C1 (relative stereo) [Example 87]
7.5 nM | Cc1cccc(C(C)(C)NC(=O)[C@@H]2CC[C@H](C)N(C)C2)c1Cl (relative stereo) [Example 88]
11.2 nM | CC[C@@H]1CC[C@@H](C(=O)NC(C)(C)c2cccc3ccccc23)CN1C (relative stereo) [Example 89]
3.1 nM | CC[C@@H]1CC[C@H](C(=O)NC(C)(C)c2cccc3ccccc23)CN1C (relative stereo) [Example 90]
7.8 nM | C[C@@H]1CC[C@@H](C(=O)NC(C)(C)c2cccc(Cl)c2Cl)CN1C (relative stereo) [Example 95]
11.7 nM | C[C@@H]1CC[C@H](C(=O)NC(C)(C)c2cccc(Cl)c2Cl)CN1C (relative stereo) [Example 96]
> 100 nM | CC[C@@H]1CC[C@@H](C(=O)NC(C)(C)c2cccc(Cl)c2Cl)CN1C (relative stereo) [Example 99]
81.4 nM | COC[C@@H]1CC[C@@H](C(=O)NC(C)(C)c2cccc3ccccc23)CN1C (relative stereo) [Example 104]
> 100 nM | COC[C@@H]1CC[C@H](C(=O)NC(C)(C)c2cccc3ccccc23)CN1C (relative stereo) [Example 105]
2 nM | CN1CC[C@@H](c2ccccc2)[C@H](C(=O)NC(C)(C)c2cccc(Cl)c2Cl)C1 (relative stereo) [Example 106]
28.2 nM | Cc1cccc(C(C)(C)NC(=O)[C@H]2CCCN(C)C2)c1 [Example 44]
84.9 nM | Cc1ccc(C(C)(C)NC(=O)[C@H]2CCCN(C)C2)cc1 [Example 45]
21.6 nM | CN1CCC[C@H](C(=O)NC(C)(C)c2cccc(Cl)c2F)C1 [Example 46]
